From patent US20230303491A1, “DONEPEZIL ETHER PALMITATE OR PHARMACEUTICALLY ACCEPTABLE SALT THEREOF” (CHONG KUN DANG PHARMACEUTICAL CORP., priority 2020, published 2023)

Assay: Pharmacokinetic evaluation: donepezil concentration in plasma after intramuscular injection of solution phase compositions
Format: in vivo
Conditions: SD rats; for release pattern: compared among DEP, DEM, DEPD, DEHD and DES formulations (40 mg/kg as donepezil) or with donepezil
Description: The main ingredients of Table 1 above, castor oil, and benzyl benzoate were mixed according to the components and amounts of Table 2 below, and stirred at room temperature for 0.5 to 3 hours to prepare solution phase compositions.
Four male SD rats with an average weight of 300 g were intramuscularly injected with a dose of 4 mg/kg of donepezil in the formulation of donepezil (D) and 40 mg/kg of donepezil each in the DEP, DEM, DEPD, DEHD, and DES formulations, and the concentrations of donepezil in plasma samples of SD rats were analyzed using LC-MS/MS.

CCCCCCCCCCCCCCOCC(=O)OC1=C(CC2CCN(Cc3ccccc3)CC2)Cc2cc(OC)c(OC)cc21 [DEP, 2-((1-benzylpiperidin-4-yl)methyl)-5,6-dimethoxy-1H-inden-3-yl 2-(tetradecyloxy) acetate]
release of drug immediately after administration (D 4 mg/kg, DEP 40 mg/kg as donepezil): without rapid release of drug after administration
release pattern: most preferred for the sustained-release composition
release pattern (listed as donepezil ether palmitate (DEP)): better release pattern than that of donepezil
